Reference: ChEMBL document CHEMBL3991601, “The target landscape of clinical kinase drugs” (Science, 2017)
Activity calls are given as the source filed them.

Columns and labels:
[1] = biological target: T1, Adenine phosphoribosyltransferase (Homo sapiens, UniProt P07741)
T1 sequence (P07741 whole entry): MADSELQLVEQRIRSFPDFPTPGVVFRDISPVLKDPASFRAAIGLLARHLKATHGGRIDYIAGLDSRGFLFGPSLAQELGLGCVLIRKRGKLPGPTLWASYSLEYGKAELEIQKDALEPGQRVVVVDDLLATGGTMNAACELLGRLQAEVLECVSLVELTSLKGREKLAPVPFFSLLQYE

[2] = biological target: Serine/threonine-protein kinase MRCK gamma (Homo sapiens, UniProt Q6DT37)
[3] = biological target: Cell division cycle 7-related protein kinase (Homo sapiens, UniProt O00311)
Sequence of Cell division cycle 7-related protein kinase (O00311 whole entry): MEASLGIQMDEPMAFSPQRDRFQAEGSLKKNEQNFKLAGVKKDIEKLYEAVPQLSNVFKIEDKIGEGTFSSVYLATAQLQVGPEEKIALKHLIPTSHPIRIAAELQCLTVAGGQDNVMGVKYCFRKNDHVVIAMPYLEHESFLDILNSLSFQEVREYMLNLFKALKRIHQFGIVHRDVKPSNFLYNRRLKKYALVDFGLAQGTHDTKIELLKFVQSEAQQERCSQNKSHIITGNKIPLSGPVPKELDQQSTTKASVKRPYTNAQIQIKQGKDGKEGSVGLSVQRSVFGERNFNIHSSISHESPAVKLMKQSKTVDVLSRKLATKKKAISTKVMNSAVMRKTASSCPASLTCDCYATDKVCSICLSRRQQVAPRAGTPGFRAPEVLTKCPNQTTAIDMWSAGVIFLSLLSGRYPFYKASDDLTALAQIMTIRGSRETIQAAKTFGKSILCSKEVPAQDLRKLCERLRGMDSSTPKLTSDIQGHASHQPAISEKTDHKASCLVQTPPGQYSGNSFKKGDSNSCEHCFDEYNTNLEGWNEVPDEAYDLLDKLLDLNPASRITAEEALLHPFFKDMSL

[4] = biological target: T2, Ephrin type-A receptor 1 (Homo sapiens, UniProt P21709)
T2 sequence (P21709 whole entry): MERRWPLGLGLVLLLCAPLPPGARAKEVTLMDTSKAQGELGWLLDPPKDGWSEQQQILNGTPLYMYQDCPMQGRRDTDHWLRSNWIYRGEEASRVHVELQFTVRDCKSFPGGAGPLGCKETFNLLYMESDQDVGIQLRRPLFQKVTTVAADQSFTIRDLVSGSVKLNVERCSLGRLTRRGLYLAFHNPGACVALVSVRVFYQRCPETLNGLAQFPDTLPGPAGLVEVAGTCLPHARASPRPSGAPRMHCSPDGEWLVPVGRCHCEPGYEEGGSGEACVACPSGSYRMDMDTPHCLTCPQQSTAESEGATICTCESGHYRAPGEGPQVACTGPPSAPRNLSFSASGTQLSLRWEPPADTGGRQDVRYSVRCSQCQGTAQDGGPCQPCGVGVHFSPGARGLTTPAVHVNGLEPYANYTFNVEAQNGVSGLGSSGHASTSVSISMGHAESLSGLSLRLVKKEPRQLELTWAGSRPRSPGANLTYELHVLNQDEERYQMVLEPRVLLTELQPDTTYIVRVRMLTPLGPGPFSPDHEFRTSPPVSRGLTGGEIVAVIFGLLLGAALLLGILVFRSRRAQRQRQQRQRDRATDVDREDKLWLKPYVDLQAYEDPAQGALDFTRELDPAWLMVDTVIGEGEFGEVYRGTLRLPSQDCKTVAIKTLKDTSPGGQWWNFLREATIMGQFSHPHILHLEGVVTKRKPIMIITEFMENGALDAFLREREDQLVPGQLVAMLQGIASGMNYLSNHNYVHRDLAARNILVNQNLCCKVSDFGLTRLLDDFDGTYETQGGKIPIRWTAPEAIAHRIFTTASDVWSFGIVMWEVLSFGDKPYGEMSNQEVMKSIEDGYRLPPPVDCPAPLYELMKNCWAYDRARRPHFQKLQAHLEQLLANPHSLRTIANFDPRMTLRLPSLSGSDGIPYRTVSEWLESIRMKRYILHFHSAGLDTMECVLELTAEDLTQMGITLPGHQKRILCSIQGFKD

[5] = biological target: T3, Inhibitor of nuclear factor kappa-B kinase subunit epsilon (Homo sapiens, UniProt Q14164)
T3 sequence (Q14164 whole entry): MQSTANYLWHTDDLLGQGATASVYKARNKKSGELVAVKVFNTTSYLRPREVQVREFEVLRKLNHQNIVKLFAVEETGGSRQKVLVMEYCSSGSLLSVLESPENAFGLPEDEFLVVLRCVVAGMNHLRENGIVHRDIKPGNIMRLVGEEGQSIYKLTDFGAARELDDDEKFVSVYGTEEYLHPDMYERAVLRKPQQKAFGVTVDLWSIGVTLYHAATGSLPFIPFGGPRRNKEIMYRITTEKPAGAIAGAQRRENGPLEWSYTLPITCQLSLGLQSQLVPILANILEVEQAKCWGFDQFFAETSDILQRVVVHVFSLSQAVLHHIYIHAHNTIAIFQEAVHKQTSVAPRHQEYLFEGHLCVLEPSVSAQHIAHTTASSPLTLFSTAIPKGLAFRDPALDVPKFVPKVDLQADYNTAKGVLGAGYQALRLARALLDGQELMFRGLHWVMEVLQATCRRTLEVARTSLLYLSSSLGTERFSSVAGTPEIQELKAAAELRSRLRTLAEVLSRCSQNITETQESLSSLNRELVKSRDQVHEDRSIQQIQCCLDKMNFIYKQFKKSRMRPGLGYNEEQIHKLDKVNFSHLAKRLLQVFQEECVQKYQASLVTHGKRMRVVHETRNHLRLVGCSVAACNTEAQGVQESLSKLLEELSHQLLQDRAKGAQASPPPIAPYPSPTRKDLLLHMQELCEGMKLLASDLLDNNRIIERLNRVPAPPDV

[6] = biological target: High affinity nerve growth factor receptor (Homo sapiens, UniProt P04629)
Sequence of High affinity nerve growth factor receptor (P04629 whole entry): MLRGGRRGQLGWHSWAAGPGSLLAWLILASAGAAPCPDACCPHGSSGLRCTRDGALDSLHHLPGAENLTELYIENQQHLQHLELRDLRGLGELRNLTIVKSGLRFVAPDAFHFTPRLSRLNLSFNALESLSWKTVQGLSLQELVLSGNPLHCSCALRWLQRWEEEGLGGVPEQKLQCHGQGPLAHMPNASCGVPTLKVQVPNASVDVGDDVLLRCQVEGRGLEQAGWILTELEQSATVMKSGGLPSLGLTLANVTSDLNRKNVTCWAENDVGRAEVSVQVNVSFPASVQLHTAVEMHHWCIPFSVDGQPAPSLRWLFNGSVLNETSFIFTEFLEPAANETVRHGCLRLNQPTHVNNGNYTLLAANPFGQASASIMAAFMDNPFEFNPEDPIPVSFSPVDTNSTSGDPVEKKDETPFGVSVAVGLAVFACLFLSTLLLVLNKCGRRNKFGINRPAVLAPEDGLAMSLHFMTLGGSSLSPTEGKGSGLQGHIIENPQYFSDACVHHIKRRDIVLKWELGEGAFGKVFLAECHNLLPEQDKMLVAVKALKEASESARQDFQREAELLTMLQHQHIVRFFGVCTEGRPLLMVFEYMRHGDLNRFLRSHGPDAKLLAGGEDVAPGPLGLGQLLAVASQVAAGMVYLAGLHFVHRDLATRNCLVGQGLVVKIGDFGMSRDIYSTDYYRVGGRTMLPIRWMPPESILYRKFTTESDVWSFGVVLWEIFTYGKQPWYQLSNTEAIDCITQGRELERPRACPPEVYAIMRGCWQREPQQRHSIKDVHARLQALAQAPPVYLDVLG

[7] = biological target: Serine/threonine-protein kinase PAK 6 (Homo sapiens, UniProt Q9NQU5)
Sequence of Serine/threonine-protein kinase PAK 6 (Q9NQU5 whole entry): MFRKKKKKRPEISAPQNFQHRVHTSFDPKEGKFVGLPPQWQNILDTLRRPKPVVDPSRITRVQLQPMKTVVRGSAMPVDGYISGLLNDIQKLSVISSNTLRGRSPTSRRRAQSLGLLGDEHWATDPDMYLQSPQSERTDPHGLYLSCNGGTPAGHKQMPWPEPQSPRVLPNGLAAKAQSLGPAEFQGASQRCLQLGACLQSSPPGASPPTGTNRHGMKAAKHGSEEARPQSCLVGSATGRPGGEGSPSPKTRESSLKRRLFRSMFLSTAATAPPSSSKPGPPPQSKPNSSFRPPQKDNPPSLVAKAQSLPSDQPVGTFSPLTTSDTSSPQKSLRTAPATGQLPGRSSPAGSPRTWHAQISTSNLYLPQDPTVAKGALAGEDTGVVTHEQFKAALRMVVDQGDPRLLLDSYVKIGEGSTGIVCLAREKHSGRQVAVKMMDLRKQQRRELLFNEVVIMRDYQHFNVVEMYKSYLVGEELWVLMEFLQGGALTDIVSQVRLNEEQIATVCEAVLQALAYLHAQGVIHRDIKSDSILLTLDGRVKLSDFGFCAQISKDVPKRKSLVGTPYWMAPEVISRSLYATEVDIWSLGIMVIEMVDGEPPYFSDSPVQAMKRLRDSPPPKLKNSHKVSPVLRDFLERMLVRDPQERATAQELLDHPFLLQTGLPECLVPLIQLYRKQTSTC

[8] = biological target: Proto-oncogene tyrosine-protein kinase receptor Ret (Homo sapiens, UniProt P07949)
Sequence of Proto-oncogene tyrosine-protein kinase receptor Ret (P07949 whole entry): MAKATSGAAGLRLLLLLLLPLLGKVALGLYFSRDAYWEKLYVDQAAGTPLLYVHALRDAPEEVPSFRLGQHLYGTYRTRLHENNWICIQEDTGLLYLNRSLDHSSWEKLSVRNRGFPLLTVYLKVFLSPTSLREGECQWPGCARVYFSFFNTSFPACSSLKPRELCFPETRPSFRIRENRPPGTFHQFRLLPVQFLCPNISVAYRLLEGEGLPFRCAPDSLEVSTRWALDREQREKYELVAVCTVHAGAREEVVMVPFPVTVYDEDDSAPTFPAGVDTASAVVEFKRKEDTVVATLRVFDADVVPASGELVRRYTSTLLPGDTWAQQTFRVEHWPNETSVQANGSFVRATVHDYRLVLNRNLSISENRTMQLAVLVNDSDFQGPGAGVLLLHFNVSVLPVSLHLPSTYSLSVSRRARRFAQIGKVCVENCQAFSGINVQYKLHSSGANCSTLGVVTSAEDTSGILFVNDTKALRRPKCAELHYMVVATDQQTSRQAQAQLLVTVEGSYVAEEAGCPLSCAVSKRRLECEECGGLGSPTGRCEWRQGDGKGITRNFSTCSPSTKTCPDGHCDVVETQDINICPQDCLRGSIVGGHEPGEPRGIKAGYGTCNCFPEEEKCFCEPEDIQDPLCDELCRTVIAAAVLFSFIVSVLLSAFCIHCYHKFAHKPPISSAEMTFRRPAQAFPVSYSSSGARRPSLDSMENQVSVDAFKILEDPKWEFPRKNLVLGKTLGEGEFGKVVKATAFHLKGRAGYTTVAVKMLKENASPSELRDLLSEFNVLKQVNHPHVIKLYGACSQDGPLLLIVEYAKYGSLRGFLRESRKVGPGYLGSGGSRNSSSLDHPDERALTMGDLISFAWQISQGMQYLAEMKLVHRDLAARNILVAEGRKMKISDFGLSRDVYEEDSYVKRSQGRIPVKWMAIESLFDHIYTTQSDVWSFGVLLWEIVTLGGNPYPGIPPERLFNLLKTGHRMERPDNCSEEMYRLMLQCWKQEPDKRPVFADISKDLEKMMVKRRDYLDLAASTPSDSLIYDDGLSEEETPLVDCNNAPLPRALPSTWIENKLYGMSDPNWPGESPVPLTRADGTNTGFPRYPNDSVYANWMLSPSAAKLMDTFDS

[9] = biological target: Serine/threonine-protein kinase 24 (Homo sapiens, UniProt Q9Y6E0)
Sequence of Serine/threonine-protein kinase 24 (Q9Y6E0 whole entry): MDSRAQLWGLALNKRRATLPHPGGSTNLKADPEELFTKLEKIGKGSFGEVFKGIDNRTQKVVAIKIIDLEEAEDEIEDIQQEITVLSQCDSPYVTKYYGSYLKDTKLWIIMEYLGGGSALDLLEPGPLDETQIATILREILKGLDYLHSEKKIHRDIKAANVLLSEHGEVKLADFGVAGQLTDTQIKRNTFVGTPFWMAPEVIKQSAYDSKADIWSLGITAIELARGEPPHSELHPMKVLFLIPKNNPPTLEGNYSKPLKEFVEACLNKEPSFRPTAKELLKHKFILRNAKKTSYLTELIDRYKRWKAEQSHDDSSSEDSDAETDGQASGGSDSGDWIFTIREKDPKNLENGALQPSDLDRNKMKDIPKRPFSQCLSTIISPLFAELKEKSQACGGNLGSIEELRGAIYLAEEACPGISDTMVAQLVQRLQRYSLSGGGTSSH

[10] = biological target: Serine/threonine-protein kinase Nek7 (Homo sapiens, UniProt Q8TDX7)
Sequence of Serine/threonine-protein kinase Nek7 (Q8TDX7 whole entry): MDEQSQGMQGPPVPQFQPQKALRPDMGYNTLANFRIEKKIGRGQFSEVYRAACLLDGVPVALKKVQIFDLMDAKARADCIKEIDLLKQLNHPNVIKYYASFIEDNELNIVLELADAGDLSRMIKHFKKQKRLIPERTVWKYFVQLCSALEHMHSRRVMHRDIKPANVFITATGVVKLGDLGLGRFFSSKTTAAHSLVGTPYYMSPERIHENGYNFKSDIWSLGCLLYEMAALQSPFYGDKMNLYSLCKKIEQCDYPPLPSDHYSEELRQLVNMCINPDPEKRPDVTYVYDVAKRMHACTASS
Further: in the data inactive means no Kd found up to 30 µM.

| SMILES | Kd [1] | Kd [2] | Kd [3] | Kd [4] | Kd [5] | Kd [6] | Kd [7] | Kd [8] | Kd [9] | Kd [10] |
| --- | --- | --- | --- | --- | --- | --- | --- | --- | --- | --- |
| O=c1sn(-c2cccc3ccccc23)c(=O)n1Cc1ccccc1 [TIDEGLUSIB] | > 30 µM (inactive) | > 30 µM (inactive) | > 30 µM (inactive) | > 30 µM (inactive) | > 30 µM (inactive) | > 30 µM (inactive) | > 30 µM (inactive) | > 30 µM (inactive) | > 30 µM (inactive) |  |
| CN(C)C(=O)c1cc2cnc(Nc3ccc(N4CCNCC4)cn3)nc2n1C1CCCC1 [RIBOCICLIB] |  | > 30 µM (inactive) |  | > 30 µM (inactive) | > 30 µM (inactive) | > 30 µM (inactive) |  | > 30 µM (inactive) | > 30 µM (inactive) | > 30 µM (inactive) |
| CCc1cnn2c(NCc3ccc[n+]([O-])c3)cc(N3CCCC[C@H]3CCO)nc12 [DINACICLIB] | > 30 µM (inactive) | > 30 µM (inactive) |  | > 30 µM (inactive) |  |  | > 30 µM (inactive) |  | > 30 µM (inactive) | > 30 µM (inactive) |
| COc1ccc(-c2ccc3c(N4CCOC[C@@H]4C)nc(N4CCOC[C@@H]4C)nc3n2)cc1CO [AZD-8055] | > 30 µM (inactive) | > 30 µM (inactive) |  | > 30 µM (inactive) | > 30 µM (inactive) | > 30 µM (inactive) | > 30 µM (inactive) | > 30 µM (inactive) | > 30 µM (inactive) | > 30 µM (inactive) |
| COc1cc2nccc(Oc3ccc(NC(=O)Nc4cc(C)on4)c(Cl)c3)c2cc1OC [TIVOZANIB] | > 30 µM (inactive) | > 30 µM (inactive) |  | > 30 µM (inactive) | > 30 µM (inactive) |  | > 30 µM (inactive) |  | > 30 µM (inactive) | > 30 µM (inactive) |
| C[C@@H](Nc1cc(F)cc(F)c1)c1cc(C(=O)N(C)C)cc2c(=O)cc(N3CCOCC3)oc12 [AZD-8186] |  |  | > 30 µM (inactive) | > 30 µM (inactive) | > 30 µM (inactive) | > 30 µM (inactive) | > 30 µM (inactive) | > 30 µM (inactive) | > 30 µM (inactive) |  |
| CCCS(=O)(=O)Nc1ccc(F)c(C(=O)c2c[nH]c3ncc(-c4ccc(Cl)cc4)cc23)c1F [VEMURAFENIB] | > 30 µM (inactive) | > 30 µM (inactive) |  | > 30 µM (inactive) | > 30 µM (inactive) | > 30 µM (inactive) |  | > 30 µM (inactive) |  | > 30 µM (inactive) |
| CNC(=O)c1ccc(C)c(-n2c(C)cc(OCc3ccc(F)cc3F)c(Br)c2=O)c1 [PH-797804] |  |  |  | > 30 µM (inactive) | > 30 µM (inactive) |  | > 30 µM (inactive) | > 30 µM (inactive) |  |  |
| COC(=O)[C@@]1(O)C[C@H]2O[C@]1(C)n1c3ccccc3c3c4c(c5c6ccccc6n2c5c31)C(=O)NC4 [K-252A] |  | > 30 µM (inactive) |  | > 30 µM (inactive) | 0.494 µM (active) |  | > 30 µM (inactive) |  | > 30 µM (inactive) | 0.003 µM |
| C[C@@H](c1ccc2nccn2c1)n1nnc2ncc(-c3cnn(C)c3)nc21 [SAVOLITINIB] | > 30 µM (inactive) |  |  |  | > 30 µM (inactive) |  |  | > 30 µM (inactive) | > 30 µM (inactive) |  |
| COc1cc(N2CCC(N3CCN(C)CC3)CC2)ccc1Nc1ncnc(Nc2ccccc2S(=O)(=O)C(C)C)n1 [ASP-3026] |  | > 30 µM (inactive) |  |  | > 30 µM (inactive) | > 30 µM (inactive) | > 30 µM (inactive) | > 30 µM (inactive) | > 30 µM (inactive) |  |
| CCn1c(=O)c(-c2cc[nH]n2)cc2c(C)nc(N)nc21 [VOXTALISIB] | > 30 µM (inactive) | > 30 µM (inactive) | > 30 µM (inactive) | > 30 µM (inactive) |  | > 30 µM (inactive) |  | > 30 µM (inactive) | > 30 µM (inactive) |  |
| Cn1cc(-c2ccc(F)c(C(F)(F)F)c2)nc1C1CCN(c2ncnc3[nH]ncc23)CC1 [LY-2584702] | > 30 µM (inactive) | > 30 µM (inactive) |  | > 30 µM (inactive) | > 30 µM (inactive) | > 30 µM (inactive) |  | > 30 µM (inactive) | > 30 µM (inactive) |  |
| CC[C@H](Nc1ncnc2[nH]cnc12)c1nc2cccc(F)c2c(=O)n1-c1ccccc1 [IDELALISIB] | > 30 µM (inactive) | > 30 µM (inactive) |  | > 30 µM (inactive) |  | > 30 µM (inactive) | > 30 µM (inactive) | > 30 µM (inactive) | > 30 µM (inactive) |  |
| Cc1cn(-c2cc(NC(=O)c3ccc(C)c(Nc4nccc(-c5cccnc5)n4)c3)cc(C(F)(F)F)c2)cn1 [NILOTINIB] |  |  | > 30 µM (inactive) |  |  |  |  |  |  |  |
| CN1N=C(N)c2cn([C@@H]3O[C@H](COP(=O)(O)O)[C@@H](O)[C@H]3O)c3ncnc1c23 [TRICIRIBINE PHOSPHATE] | > 30 µM (inactive) | > 30 µM (inactive) | > 30 µM (inactive) | > 30 µM (inactive) | > 30 µM (inactive) | > 30 µM (inactive) |  | > 30 µM (inactive) | > 30 µM (inactive) | > 30 µM (inactive) |
| Cc1ccc(S(=O)(=O)Nc2nc3ccccc3nc2Nc2ccc3nsnc3c2)cc1 |  |  |  | > 30 µM (inactive) | > 30 µM (inactive) | > 30 µM (inactive) |  | > 30 µM (inactive) | > 30 µM (inactive) | > 30 µM (inactive) |
| Cc1nc(N)sc1-c1ccnc(Nc2ccc(N3CCOCC3)cc2)n1 [CYC-116] | > 30 µM (inactive) |  |  |  |  |  |  |  | > 30 µM (inactive) | > 30 µM (inactive) |
| CCn1c(-c2nonc2N)nc2c(C#CC(C)(C)O)ncc(OC[C@H]3CCCNC3)c21 [GSK-690693] | > 30 µM (inactive) |  |  |  |  |  |  |  |  |  |
| C1=C/COCc2cc(ccc2OCCN2CCCC2)Nc2nccc(n2)-c2cccc(c2)COC/1 [PACRITINIB] | > 30 µM (inactive) |  |  |  | 0.715 µM (active) | > 30 µM (inactive) |  | > 30 µM (inactive) | > 30 µM (inactive) |  |
| N[C@@H]1CCCN(c2c(/C=C3\SC(=O)NC3=O)cccc2-c2ccccc2)C1 | > 30 µM (inactive) | > 30 µM (inactive) |  |  | > 30 µM (inactive) | > 30 µM (inactive) |  | > 30 µM (inactive) | > 30 µM (inactive) |  |
| O=C(c1ccc(F)c(F)c1Nc1ccc(I)cc1F)N1CC(O)([C@@H]2CCCCN2)C1 [COBIMETINIB] |  |  |  | > 30 µM (inactive) | > 30 µM (inactive) | > 30 µM (inactive) | > 30 µM (inactive) | > 30 µM (inactive) | > 30 µM (inactive) | > 30 µM (inactive) |
| Cc1cc([C@@H](C)Nc2ccccc2C(=O)O)c2nc(N3CCOCC3)cc(=O)n2c1 [AZD-6482] | > 30 µM (inactive) | > 30 µM (inactive) |  | > 30 µM (inactive) | > 30 µM (inactive) | > 30 µM (inactive) | > 30 µM (inactive) | > 30 µM (inactive) | > 30 µM (inactive) |  |
